Source: US4968679A, “8-substituted 2-aminotetralins” (Bayer Aktiengesellschaft, priority 1986, dated 1990)

target: 5-hydroxytryptamine receptors of the sub-type 1 (5-HT1 receptor); experiment: Affinity to the 5-HT1 receptor: receptor binding studies using calf hippocampus membrane preparations, 3H-serotonin as radioactively labelled ligand; settings: calf hippocampus membranes; 3H-serotonin radioligand
Description: In Table 1, as an example, the high affinity of the compounds according to the invention to 5-hydroxytryptamine receptors of the sub-type 1 is shown. The values specified are data which were determined from receptor binding studies using calf hippocampus membrane preparations. 3 H-serotonin was used for this purpose as radioactively labelled ligand.

Going from `CCCN(CCC)C1CCc2cccc(Cl)c2C1` (stereo not shown) [Example 1, 2-Dipropylamino8-chloro-1,2,3,4-tetrahydronaphthalene] to `CCCN(CCC)C1CCc2cccc(Br)c2C1` (stereo not shown) [Example 2, 2-Dipropylamino-8-bromo-1,2,3,4-tetrahydronaphthalene], the Ki falls from 20 nM to 13 nM (1.5-fold).

First: CCCN(CCC)C1CCc2cccc(C(N)=O)c2C1 (stereo not shown) [Example 6, 2-Dipropylamino-8-carbamoyl-1,2,3,4-tetrahydronaphthalene]
Second: CCCN(CCC)C1CCc2cccc(O)c2C1 (stereo not shown) [R^1 =OH, R^2 =R^3 =nC3 H7, reference compound]
The Ki of the first is 3.5-fold higher: 7 nM for the first, 2 nM for the second.

`CCCCS(=O)(=O)NCCOc1cccc2c1CC(N(CCC)CCC)CC2` (stereo not shown) [Example 26, 2-Dipropylamino-8-(2-butanesulphonamidoethoxy)-1,2,3,4-tetrahydronaphthalene] and `CCCN(CCC)C1CCc2cccc(OCCNC=O)c2C1` (stereo not shown) [Example 33, 2-Dipropylamino-8-(2-formylamido-ethoxy)-1,2,3,4-tetrahydronaphthalene] are within 1.5-fold of each other in Ki: 17 nM for the first, 19 nM for the second.

Going from `CCCN(CCC)C1CCc2cccc(OCCNC(=O)OCC)c2C1` (stereo not shown) [Example 28, 2-Dipropylamino-8-(2-ethoxycarbonylamido-ethoxy)1,2,3,4-tetrahydronaphthalene] to `CCCN(CCC)C1CCc2cccc(OCCNC(N)=O)c2C1` (stereo not shown) [Example 30, 2-Dipropylamino-8-ureidoethoxy-1,2,3,4-tetrahydronaphthalene], the Ki rises from 4 nM to 30 nM (7.5-fold). The first binds more tightly here.

First: CCCN(CCC)C1CCc2cccc(CCNC(=O)OCc3ccccc3)c2C1 (stereo not shown) [Example 42, 2-Dipropylamino-8-(2-benzyloxycarbonylamido-ethyl)-2,3,4-tetrahydronaphthalene]
Second: CCCN(CCC)C1CCc2cccc(OC)c2C1 (stereo not shown) [R^1 =OCH3, R^2 =R^3 =nC3 H7, reference compound]
The Ki of the first is 1.7-fold higher: 5 nM for the first, 3 nM for the second. The second binds more tightly here.
